Test results published in ChEMBL document CHEMBL1201862, “PubChem BioAssay data set” (2004).
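Step 1: Grow cells in 96-well plates. Step 2: Expose to compound for 48 hours at 5 concentrations. Step 3: Interpolate endpoints linearly; if unreached, use highest concentration. Here, GI50 denotes the concentration required for 50% inhibition of growth.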 Calls of active or inactive are those of the source. Cut-off read from the data, not from the text of the source: active = GI50 up to about 1.1 µM and inactive = higher.

What was measured:
Assay in all cases: inhibition of tumour cell growth, NCI panel, 48 h
HCC 2998 = test system: HCC 2998
CCRF-CEM = test system: CCRF-CEM
A498 = test system: A498
HCT-116 = test system: HCT-116
CAKI-1 = test system: CAKI-1
OVCAR-4 = test system: OVCAR-4
U-251 = test system: U-251
EKVX = test system: EKVX
COLO 205 = test system: COLO 205
LOX IMVI = test system: LOX IMVI
SR = test system: SR
HT-29 = test system: HT-29
TK-10 = test system: TK-10
786-0 = test system: 786-0
IGROV-1 = test system: IGROV-1
SK-MEL-5 = test system: SK-MEL-5
NCI/ADR-RES = test system: NCI/ADR-RES
MDA-MB-231 = test system: MDA-MB-231

Measured: GI50

O=C(Nc1cc(Cl)c(Cl)cc1Cl)C(=O)C(C(=O)c1ccc(Cl)c(Cl)c1)C1OC(=O)c2ccccc21 (stereo not given)
inactive: HCC 2998 18.8 µM | CCRF-CEM 5.35 µM | A498 17.2 µM | HCT-116 15.1 µM | CAKI-1 16.1 µM | OVCAR-4 22.9 µM | U-251 15.3 µM | EKVX 19.6 µM | COLO 205 15 µM | LOX IMVI 16.4 µM | SR 4.39 µM | HT-29 18.5 µM | TK-10 26.1 µM | 786-0 13.4 µM

O=c1oc2c3ccc4ccccc4c3n(CCCN3CCCCC3)c2c2ccccc12
inactive: HCC 2998 > 100 µM | CCRF-CEM 17.3 µM | HCT-116 16.1 µM | CAKI-1 > 100 µM | OVCAR-4 45.9 µM | EKVX > 100 µM | IGROV-1 > 100 µM | COLO 205 10.9 µM | LOX IMVI > 100 µM | SR 3.59 µM | HT-29 8.39 µM | TK-10 42.1 µM | 786-0 18.7 µM

O=C1C(=Cc2c(O)cc(O)cc2O)C(=O)c2ccccc21
inactive: HCC 2998 > 41.9 µM | CCRF-CEM 29.9 µM | A498 45.1 µM | SK-MEL-5 > 100 µM | HCT-116 > 39.3 µM | CAKI-1 > 45.9 µM | OVCAR-4 > 48.2 µM | U-251 > 42.9 µM | EKVX > 79.8 µM | IGROV-1 > 43.5 µM | COLO 205 > 41.5 µM | LOX IMVI 15.4 µM | SR 13.6 µM | HT-29 > 42.1 µM | TK-10 > 46.6 µM | 786-0 > 42.1 µM

COC(=O)C1CCCC2(C1)OCCO2 (stereo not given)
inactive: HCC 2998 > 100 µM | CCRF-CEM > 100 µM | A498 > 100 µM | SK-MEL-5 > 100 µM | HCT-116 > 100 µM | CAKI-1 > 100 µM | OVCAR-4 > 100 µM | U-251 > 100 µM | EKVX > 100 µM | IGROV-1 > 100 µM | COLO 205 > 100 µM | LOX IMVI > 100 µM | SR > 100 µM | HT-29 > 100 µM | TK-10 > 100 µM | 786-0 > 100 µM

Nc1nc(Cl)cc(NCC(O)CO)n1 (stereo not given)
inactive: HCC 2998 > 100 µM | CCRF-CEM > 100 µM | A498 > 100 µM | SK-MEL-5 > 100 µM | HCT-116 > 100 µM | OVCAR-4 > 100 µM | U-251 > 100 µM | EKVX > 100 µM | IGROV-1 > 100 µM | COLO 205 > 100 µM | LOX IMVI > 100 µM | SR > 100 µM | HT-29 > 100 µM | TK-10 > 100 µM | 786-0 > 100 µM

Cc1ccccc1/C=C/C(=O)c1ccccc1
inactive: HCC 2998 18.4 µM | CCRF-CEM 29.6 µM | A498 16.4 µM | SK-MEL-5 > 10 µM | HCT-116 15.4 µM | CAKI-1 19.4 µM | OVCAR-4 13.3 µM | U-251 16.8 µM | EKVX 17.5 µM | IGROV-1 25.2 µM | COLO 205 21.4 µM | SR 29 µM | HT-29 20.1 µM | 786-0 16.3 µM

O=C(CC1C(=O)Nc2ccccc2S1(=O)=O)Nc1ccc(Cl)cc1 (stereo not given)
inactive: HCC 2998 18.4 µM | CCRF-CEM 20.3 µM | A498 25.8 µM | SK-MEL-5 21.2 µM | HCT-116 27.7 µM | CAKI-1 16.5 µM | OVCAR-4 22.1 µM | U-251 16 µM | IGROV-1 17.2 µM | LOX IMVI 16.9 µM | SR 4.7 µM | HT-29 29.9 µM | TK-10 20 µM | 786-0 14.5 µM

CCOC(=O)C1([Se]c2ccccc2)CCCC1=O (stereo not given)
inactive: HCC 2998 25.9 µM | CCRF-CEM 15.2 µM | A498 > 100 µM | SK-MEL-5 20.1 µM | HCT-116 15.5 µM | CAKI-1 44.5 µM | OVCAR-4 18.8 µM | U-251 9.95 µM | EKVX 23.6 µM | IGROV-1 18.6 µM | COLO 205 16 µM | LOX IMVI 13.1 µM | SR 14 µM | HT-29 37.8 µM | TK-10 77.6 µM | 786-0 14.2 µM

OCC1OC(c2ccccc2)CC1O (stereo not given)
inactive: CCRF-CEM > 100 µM | A498 > 100 µM | SK-MEL-5 > 100 µM | HCT-116 > 100 µM | CAKI-1 > 100 µM | NCI/ADR-RES > 100 µM | OVCAR-4 > 100 µM | U-251 > 100 µM | EKVX > 100 µM | IGROV-1 > 100 µM | MDA-MB-231 > 100 µM | COLO 205 > 100 µM | LOX IMVI > 100 µM | SR > 100 µM | HT-29 > 100 µM | TK-10 > 100 µM | 786-0 > 100 µM

CN1CCc2cc3c4cc2C1Cc1ccc(cc1)Oc1cc(ccc1O)CC1c2c(cc(O)c(c2O4)O3)CCN1C (stereo not given)
inactive: HCC 2998 2.06 µM | CCRF-CEM 2.52 µM | A498 > 10 µM | SK-MEL-5 2.39 µM | HCT-116 1.41 µM | CAKI-1 10.5 µM | OVCAR-4 2.22 µM | U-251 1.69 µM | EKVX 7.08 µM | IGROV-1 4.43 µM | COLO 205 5.65 µM | LOX IMVI 1.66 µM | SR 3.92 µM | HT-29 2.8 µM | TK-10 10.6 µM | 786-0 5.26 µM

Cc1ccc(S(=O)(=O)OCC/C(=C\[Si](C)(C)C)c2ccccc2)cc1
inactive: HCC 2998 > 100 µM | CCRF-CEM > 100 µM | A498 > 100 µM | SK-MEL-5 > 100 µM | HCT-116 > 100 µM | CAKI-1 > 100 µM | OVCAR-4 > 100 µM | U-251 > 100 µM | EKVX > 100 µM | IGROV-1 > 100 µM | COLO 205 > 100 µM | LOX IMVI > 100 µM | SR 24 µM | HT-29 > 100 µM | TK-10 > 100 µM | 786-0 > 100 µM

O=C(NC1CC1)c1c(O)[nH]c(=S)[nH]c1=O
inactive: CCRF-CEM > 100 µM | A498 > 100 µM | SK-MEL-5 > 100 µM | HCT-116 > 100 µM | CAKI-1 > 100 µM | OVCAR-4 > 100 µM | U-251 > 100 µM | IGROV-1 > 100 µM | COLO 205 > 100 µM | LOX IMVI > 100 µM | SR > 100 µM | HT-29 > 100 µM | TK-10 > 100 µM | 786-0 > 100 µM

O=C(N/N=C/c1cccc(F)c1)c1ccncc1
inactive: HCC 2998 > 100 µM | CCRF-CEM > 100 µM | A498 > 100 µM | SK-MEL-5 > 100 µM | HCT-116 > 100 µM | CAKI-1 > 10 µM | OVCAR-4 > 10 µM | U-251 > 100 µM | COLO 205 > 100 µM | LOX IMVI > 100 µM | SR > 100 µM | HT-29 > 100 µM | TK-10 > 100 µM | 786-0 > 100 µM
